Measurements reported in the supplement of paper PMC11699113.
Counter-ions that a name gives are not always drawn.

Tested on: ED cells (E. derm NBM-6, ATCC CCL-57)
Assay: cell viability (ATP, CellTiter-Glo) relative to untreated control (fraction of control); higher = less cytotoxic

CCC[C@@]1(CCc2ccccc2)CC(O)=C([C@H](CC)c2cccc(NS(=O)(=O)c3ccc(C(F)(F)F)cn3)c2)C(=O)O1 [tipranavir]
cell viability
Conditions	0.25 µM	0.5 µM	2 µM	5 µM	10 µM	20 µM	50 µM	100 µM	140 µM	166 µM
incubation time: 1h	1.01	1	0.997	1	1	0.982	0.958	0.789	0.636	0.622
incubation time: 24h	1.01	1	0.993	1	1.03	0.966	0.885	0.718	0.505	0.498
incubation time: 72h	1.04	1.04	1.04	1.02	1.01	0.99	0.822	0.557	0.294	0.212
incubation time: 144h	1	1.01	1.01	1	0.996	0.973	0.772	0.405	0.109	0.0669

O=C(NCc1c(F)cc(F)cc1F)c1cn2c(c(O)c1=O)C(=O)N1[C@H]3CC[C@H](C3)O[C@@H]1C2 [bictegravir]
cell viability
Conditions	0.06 µM	0.125 µM	0.325 µM	2 µM	5 µM	10 µM	20 µM	30 µM	42 µM	concentration (µM): C04 (printed 10, out of sequence, likely typo)
incubation time: 1h	1	0.997	0.994	0.995	0.987	0.99	0.993	0.994	0.98	1
incubation time: 24h	1.01	0.998	1.01	1.01	1.02	1.01	1.03	1.01	1	1.01
incubation time: 72h	1.07	1.09	1.1	1.1	1.11	1.11	1.08	1.05	0.997	1.09
incubation time: 144h	1.07	1.06	1.07	1.06	1.06	1.05	1.01	0.972	0.952	1.07

CC[C@H](C)[C@H](NC(=O)[C@H](CC(C)C)NC(=O)[C@H](CO)NC(=O)[C@H](Cc1cnc[nH]1)NC(=O)[C@@H](NC(=O)[C@H](CC(C)C)NC(=O)[C@H](CO)NC(=O)[C@@H](NC(=O)[C@H](Cc1ccc(O)cc1)NC(C)=O)[C@@H](C)O)[C@@H](C)CC)C(=O)N[C@@H](CCC(=O)O)C(=O)N[C@@H](CCC(=O)O)C(=O)N[C@@H](CO)C(=O)N[C@@H](CCC(N)=O)C(=O)N[C@@H](CC(N)=O)C(=O)N[C@@H](CCC(N)=O)C(=O)N[C@@H](CCC(N)=O)C(=O)N[C@@H](CCC(=O)O)C(=O)N[C@@H](CCCCN)C(=O)N[C@@H](CC(N)=O)C(=O)N[C@@H](CCC(=O)O)C(=O)N[C@@H](CCC(N)=O)C(=O)N[C@@H](CCC(=O)O)C(=O)N[C@@H](CC(C)C)C(=O)N[C@@H](CC(C)C)C(=O)N[C@@H](CCC(=O)O)C(=O)N[C@@H](CC(C)C)C(=O)N[C@@H](CC(=O)O)C(=O)N[C@@H](CCCCN)C(=O)N[C@@H](Cc1c[nH]c2ccccc12)C(=O)N[C@@H](C)C(=O)N[C@@H](CO)C(=O)N[C@@H](CC(C)C)C(=O)N[C@@H](Cc1c[nH]c2ccccc12)C(=O)N[C@@H](CC(N)=O)C(=O)N[C@@H](Cc1c[nH]c2ccccc12)C(=O)N[C@@H](Cc1ccccc1)C(N)=O [enfuvirtide]
cell viability
Conditions	0.03 µM	0.06 µM	0.125 µM	0.25 µM	0.5 µM	1 µM	2 µM	5 µM	8 µM	11 µM
incubation time: 1h	1.05	1.06	1.06	1.07	1.05	1.05	1.05	1.05	1.06	1.06
incubation time: 24h	1.06	1.07	1.06	1.07	1.06	1.06	1.06	1.07	1.05	1.04
incubation time: 72h	1.05	1.06	1.06	1.08	1.06	1.06	1.07	1.06	1.05	1.06
incubation time: 144h	1.02	1.03	1.03	1.04	1.03	1.03	1.04	1.04	1.06	1.04

CC(C)(C)NC(=O)[C@@H]1C[C@@H]2CCCC[C@@H]2CN1C[C@@H](O)[C@H](Cc1ccccc1)NC(=O)[C@H](CC(N)=O)NC(=O)c1ccc2ccccc2n1 [saquinavir]
cell viability
Conditions	0.25 µM	0.5 µM	2 µM	5 µM	10 µM	20 µM	25 µM	30 µM	50 µM	65 µM
incubation time: 1h	1.03	1.04	1.03	1.04	1.03	1	1.01	1.02	0.958	0.868
incubation time: 24h	0.995	1.01	1	0.992	0.955	0.896	0.872	0.868	0.75	0.583
incubation time: 72h	1.04	1.03	1.01	0.956	0.904	0.798	0.753	0.687	0.306	0.0705
incubation time: 144h	1.02	1.02	1	0.951	0.922	0.808	0.743	0.699	0.201	0.0214

COC(=O)N[C@H](C(=O)N[C@@H](Cc1ccccc1)[C@@H](O)CN(Cc1ccc(-c2ccccn2)cc1)NC(=O)[C@@H](NC(=O)OC)C(C)(C)C)C(C)(C)C [atazanavir]
cell viability
Conditions	0.125 µM	0.25 µM	0.5 µM	2 µM	10 µM	20 µM	50 µM	80 µM	100 µM	124 µM
incubation time: 1h	1.05	1.05	1.05	1.06	1.06	1.04	1.03	1.01	1.02	1.02
incubation time: 24h	1.07	1.08	1.07	1.07	1.06	1.06	1.03	0.979	0.941	0.798
incubation time: 72h	1.09	1.12	1.1	1.1	1.13	1.12	1.09	0.802	0.416	0.0698
incubation time: 144h	1.02	1.05	1.03	1.03	1.07	1.07	1.04	0.554	0.0524	0.00492

CC(C)c1nc(CN(C)C(=O)N[C@H](C(=O)N[C@@H](Cc2ccccc2)C[C@H](O)[C@H](Cc2ccccc2)NC(=O)OCc2cncs2)C(C)C)cs1 [ritonavir]
cell viability
Conditions	0.5 µM	2 µM	5 µM	10 µM	25 µM	50 µM	80 µM	100 µM	200 µM	300 µM
incubation time: 1h	1.05	1.05	1.05	1.03	1	0.976	0.899	0.879	0.881	0.887
incubation time: 24h	1.03	0.991	0.964	0.922	0.886	0.834	0.426	0.372	0.363	0.363
incubation time: 72h	1.01	0.949	0.868	0.81	0.763	0.686	0.00794	0.00652	0.00418	0.00806
incubation time: 144h	1	0.966	0.901	0.854	0.788	0.703	0.0753	0.0037	0.00476	0.00437

Nc1nc(=O)n([C@@H]2CS[C@H](CO)O2)cc1F [emtricitabine]
cell viability
Conditions	0.5 µM	2 µM	5 µM	10 µM	25 µM	50 µM	80 µM	100 µM	200 µM	300 µM
incubation time: 1h	0.999	0.996	1.01	1.01	0.998	1	1.01	1.01	0.998	1.01
incubation time: 24h	0.998	1.02	1.02	1.04	1.04	1.03	1.03	1.03	1.01	1
incubation time: 72h	1.03	1.05	1.05	1.05	1.05	1.04	1.04	1.03	0.999	0.999
incubation time: 144h	1.03	1.05	1.06	1.06	1.06	1.05	1.04	1.05	1.05	1.02

Nc1nc(NC2CC2)c2ncn([C@H]3C=C[C@@H](CO)C3)c2n1 [abacavir]
cell viability
Conditions	0.5 µM	2 µM	5 µM	10 µM	25 µM	50 µM	80 µM	100 µM	200 µM	300 µM
incubation time: 1h	1	0.999	1	1	1	0.999	0.994	0.99	0.983	0.982
incubation time: 24h	1.01	1.02	1.01	1.01	0.99	0.944	0.924	0.91	0.846	0.788
incubation time: 72h	1.02	1.03	0.999	0.978	0.925	0.846	0.785	0.745	0.604	0.506
incubation time: 144h	1.04	1.02	0.992	0.949	0.884	0.816	0.754	0.735	0.596	0.458

Cc1ccnc2c1NC(=O)c1cccnc1N2C1CC1 [nevirapine]
cell viability
Conditions	0.5 µM	2 µM	5 µM	10 µM	25 µM	50 µM	80 µM	100 µM	200 µM	300 µM
incubation time: 1h	1.05	1.04	1.05	1.05	1.05	1.04	1.05	1.04	1.05	1.04
incubation time: 24h	1.06	1.06	1.07	1.07	1.08	1.09	1.06	1.08	1.05	1.04
incubation time: 72h	1.04	1.05	1.07	1.07	1.06	1.06	1.03	1.02	0.958	0.924
incubation time: 144h	1	1.02	1.02	1.03	1.02	0.989	0.962	0.961	0.886	0.848

Nc1ccn([C@@H]2CS[C@H](CO)O2)c(=O)n1 [lamivudine]
cell viability
Conditions	0.5 µM	2 µM	5 µM	10 µM	20 µM	40 µM	50 µM	75 µM	100 µM	150 µM
incubation time: 1h	1.04	1.02	1.03	1.03	1.02	1.01	1.01	1.02	0.997	0.979
incubation time: 24h	1.02	1.03	1.03	1.03	1.03	1.03	1.02	1.03	1.03	1.04
incubation time: 72h	1.03	1.04	1.05	1.04	1.06	1.05	1.04	1.04	1.04	1.02
incubation time: 144h	1.03	1.03	1.04	1.04	1.04	1.04	1.03	1.04	1.03	1

CC(C)OC(=O)OCOP(=O)(CO[C@H](C)Cn1cnc2c(N)ncnc21)OCOC(=O)OC(C)C [tenofovir disoproxil fumarate]
cell viability
Conditions	0.5 µM	2 µM	5 µM	10 µM	20 µM	40 µM	50 µM	75 µM	100 µM	150 µM
incubation time: 1h	1.01	1.01	1.02	1.02	1.01	0.999	1	1	0.999	0.988
incubation time: 24h	1.02	1.01	1	0.98	0.95	0.89	0.855	0.795	0.721	0.613
incubation time: 72h	1	0.992	0.947	0.898	0.836	0.75	0.708	0.643	0.643	0.545
incubation time: 144h	1.02	0.993	0.941	0.877	0.833	0.766	0.737	0.662	0.624	0.527

Cc1cn([C@H]2C[C@H](N=[N+]=[N-])[C@@H](CO)O2)c(=O)[nH]c1=O [zidovudine]
cell viability
Conditions	0.5 µM	2 µM	5 µM	10 µM	25 µM	50 µM	80 µM	100 µM	200 µM	300 µM
incubation time: 1h	1.05	1.06	1.05	1.04	1.02	1.04	1.04	1.04	1.03	1.02
incubation time: 24h	1.06	1.05	1.02	1.02	1.02	1.05	0.981	0.98	1.04	0.958
incubation time: 72h	1.07	1.07	1.09	1.09	1.08	1.09	1.07	1.08	1.09	1.08
incubation time: 144h	1.01	1.03	1.03	1.03	1.04	1.03	1.03	1.04	1.06	1.06

Cc1nnc(C(=O)NC(C)(C)c2nc(C(=O)NCc3ccc(F)cc3)c(O)c(=O)n2C)o1 [raltegravir]
cell viability
Conditions	0.5 µM	2 µM	5 µM	10 µM	25 µM	50 µM	80 µM	100 µM	200 µM	300 µM
incubation time: 1h	1.07	1.07	1.07	1.08	1.07	1.06	1.05	1.07	1.06	1.06
incubation time: 24h	1.02	1.02	1.02	1.03	1.02	1.01	0.983	0.999	0.982	0.963
incubation time: 72h	1.03	1.05	1.04	1.04	1.04	1.05	1.01	1.02	0.992	0.963
incubation time: 144h	0.994	0.999	1.03	1.03	1.04	1.04	1.03	1.02	0.991	0.955
